The source of these data is patent publication US20040254173A1, “Modulation of dopamine responses with substituted (S)-2,3-benzodiazepines” (priority 2003, published 2004).

Experiment [1] has as its system anti-noradrenergic effects. To be noted: Ito 1981; cited from earlier work.
For experiment [2], the system named is muricide (mouse killing behavior) in rats. To be noted: Ito 1981; cited from earlier work.
The subject of the next experiment is aggression in mice. As to conditions: Ito 1981; cited from earlier work.
The next experiment has as its system narcosis. As to conditions: mice; U.S. Pat. No. 4,322,346; cited from earlier work.
Experiment [3] has as its system apomorphine-induced hypothermia, stereotypies and climbing. In words: Low Dose Apomorphine Test in the mouse. The experiment is classed as in vivo. To be noted: for STEREOTYPY (intensity score), 20 min after apomorphine, mean ± s.e.m. / STEREOTYPY (intensity score), 50 min after apomorphine, mean ± s.e.m.: 4 point scale (0-3); for CLIMBING (No. of mice), 20 minutes after apomorphine / CLIMBING (No. of mice), 50 minutes after apomorphine: 6 mice per group; for Rectal Temperature, 30 min after apomorphine, mean ± s.e.m. / Rectal Temperature, 60 min after apomorphine, mean ± s.e.m. / Rectal Temperature, before apomorphine, mean ± s.e.m. / effect on apomorphine-induced hypothermia: mouse; for Rectal Temperature, 30 min after apomorphine, mean change from control / Rectal Temperature, 60 min after apomorphine, mean change from control / STEREOTYPY (intensity score), 20 min after apomorphine, mean change from control / STEREOTYPY (intensity score), 50 min after apomorphine, mean change from control: vs vehicle. From the text:
Racemic tofisopam, (R)-tofisopam and (S)-tofisopam were investigated in the Low Dose Apomorphine Test in the mouse to evaluate their pro- or anti-dopaminergic activity following intraperitoneal (i.p.) administration of apomorphine. Apomorphine, at a low dose, induces hypothermia, stereotypies and climbing. All three of these symptoms are potentiated by dopaminergic agonists and antagonized by dopamine antagonists, such as classical neuroleptics. The Low Dose Apomorphine Test, thus serves to detect pro- or antidopaminergic activity. The test was performed according to the protocols described by Chermat and Poncelet. See, Chermat R., Poncelet M., “Antagonisme des redressements, des stéréotypies et de l'hypotheimie induits par 1 ou 16 mg.kg-1 d'apomorphine,” J. Pharmacol., 14, 93-97, 1983.
Male mice of Rj: NMRI strain, 23-26 g body weight range were supplied by Elevage Janvier, 53940 Le Genest-Saint-Isle, France. The animals were delivered to the laboratory at least 3 days before the experiment and, upon arrival, were housed 10 per cage in macrolon cages (25×19×13 cm) containing wood shavings (Litalabo-SPPS, 95100 Argenteuil, France) with free access to food (UAR 113-UAR, 91360 Epinay-sur-Orge, France) and tap water (i.e. non-fasted) until tested. The animal house was maintained under artificial lighting (12 hours) between 7.00 and 19.00 in a controlled ambient temperature of 21±1° C., and relative humidity maintained at 40-70%.
The different treatments were equally distributed between the animals. During the experiment, each animal within a cage received the same treatment. Animals within a cage were individually marked on the tail with an indelible pen.
The experiment was conducted blind with treatment vials labeled A, B, C etc., according to a standardized coding procedure. The evaluation of the different treatments was balanced over time by testing successive series of individual animals from each treatment group in a fixed rotation (A, B, C, etc.). Animals were sacrificed at the end of the experiment by exposure to CO2.
Three compounds, racemic tofisopam, (R)-tofisopam and (S)-tofisopam were tested in the Low Dose Apomorphine Test. Each of these three compounds was dosed as a dispersion in 0.2% hydroxypropylmethylcellulose (HPMC) (Sigma), in sterile physiological saline (Laboratoire Aguettant).
Two reference standards were also dosed. Bromocriptine, methanesulfonate (Sigma), a known dopamine agonist, and haloperidol (Sigma), a known dopamine antagonist, were dispersed in 0.2% HPMC in sterile physiological saline.
Apomorphine hydrochloride, the dopamine mimetic employed in the assay, was dissolved in water for injectable preparation (Laboratoire Aguettant). Dosing: All of the dosed substances were administered in a volume of 10 ml/kg. The doses are expressed in mg/kg of supplied substance.
6 mice were studied per group. The test was performed blind.
Racemic tofisopam, (R)-tofisopam and (S)-tofisopam were administered at doses of 16, 32 and 64 mg/kg, administered intraperitonealy (i.p.), 30 minutes prior to administration of apomorphine.
The rectal temperature of the mice was measured prior to apomorphine dosing using a rectal probe (Physitemp Instruments Digital Laboratory Thermometer Model BAT-12). The mice were then placed in individual Plexiglas cages (10×6×4 cm) attached with the opening against a vertical wire grid.
The mice were then injected subcutaneously (s.c.) with apomorphine (1 mg/kg). Rectal temperature was measured 30 and 60 minutes after the injection of apomorphine.
The intensity of stereotypies (sniffing, licking, gnawing), were scored at 20 minutes and 50 minutes after injection of apomorphine on a 4 point scale (0-3). The presence (1) or absence (0) of climbing against the wire grid wall, were also assessed 20 and 50 minutes after injection of apomorphine.
The reference standards bromocriptine (16 mg/kg) and haloperidol (0.5 mg/kg), were administered under the same experimental conditions.

The mark [4] stands for this setting: 0.5 mg/kg, before apomorphine 1 mg/kg s.c.
Where [5] appears, read: 16 mg/kg i.p. 30 min before apomorphine 1 mg/kg s.c.

As for `CCC1C(C)=NN=C(c2ccc(OC)c(OC)c2)c2cc(OC)c(O)cc21` (stereo not drawn) [1-(3,4-Dimethoxyphenyl)-4-methyl-5-ethyl-7-hydroxy-8-methoxy-5H-2,3-benzodiazepine], in experiment [1], the antinoradrenergic effect result was “no antinoradrenergic effect”. Further, the inhibition of muricide in experiment [2] was 20%. Also, in the experiment with aggression in mice, the “inhibition of aggression in mice” value is 0%.

In the case of `CCC1C(C)=NN=C(c2ccc(O)c(OC)c2)c2cc(OC)c(OC)cc21` (stereo not drawn) [1-(3-Methoxy-4-hydroxyphenyl)-4-methyl-5-ethyl-7,8-dimethoxy-5H-2,3-benzodiazepine], in experiment [1], the antinoradrenergic effect result is reported as “a measurable antinoradrenergic effect”. The inhibition of muricide in experiment [2] is reported as 0%. The narcosis-potentiating activity result in the experiment with narcosis is listed as “narcosis-potentiating activity”. For the same compound, in the experiment with aggression in mice, the “inhibition of aggression in mice” value is reported as 0%.

On to `CCC1C(C)=NN=C(c2ccc(O)c(OC)c2)c2cc(OC)c(O)cc21` (stereo not drawn) [1-(3-Methoxy-4-hydroxyphenyl)-4-methyl-5-ethyl-7-hydroxy-8-methoxy-5H-2,3-benzodiazepine], for which the antinoradrenergic effect result in experiment [1] is recorded as “a measurable antinoradrenergic effect”. Besides, the inhibition of muricide in experiment [2] was 20%. For the same compound, in the experiment with aggression in mice, the “inhibition of aggression in mice” value is on record as 28.6%.

Regarding `O=C(CCCN1CCC(O)(c2ccc(Cl)cc2)CC1)c1ccc(F)cc1` [Haloperidol, haloperidol], in experiment [3] (0.5 mg/kg), the “effect on apomorphine-induced stereotypies and climbing as well as hypothermia” value is reported as “significantly antagonized”; the “Rectal Temperature, before apomorphine, mean ± s.e.m.” value is 37.3 ± 0.1 °C; the “effect on apomorphine-induced hypothermia” value is reported as “significantly antagonized”. In experiment [3] (setting [4]), the “STEREOTYPY (intensity score), 20 min after apomorphine, mean ± s.e.m.” value is listed as 0.0 ± 0.0; the “STEREOTYPY (intensity score), 50 min after apomorphine, mean ± s.e.m.” value was found to be 0.0 ± 0.0; the “CLIMBING (No. of mice), 20 minutes after apomorphine” value is 0+ No. of mice; the “CLIMBING (No. of mice), 50 minutes after apomorphine” value is 1 No. of mice. In experiment [3] (setting [4]), the “Rectal Temperature, 30 min after apomorphine, mean ± s.e.m.” value is 37.0 ± 0.1 °C; the “Rectal Temperature, 60 min after apomorphine, mean ± s.e.m.” value came to 37.7 ± 0.1 °C; the “Rectal Temperature, 30 min after apomorphine, mean change from control” value is “+1.9 °C”; the “Rectal Temperature, 60 min after apomorphine, mean change from control” value is “+1.0 °C”. In addition, in experiment [3] (setting [4]), the “STEREOTYPY (intensity score), 20 min after apomorphine, mean change from control” value was −2.2 and the “STEREOTYPY (intensity score), 50 min after apomorphine, mean change from control” value was −1.0.

On to Bromocriptine, methanesulfonate, for which, in experiment [3] (16 mg/kg), the “effect on apomorphine-induced stereotypies or climbing” value was “did not significantly affect” and the “effect on apomorphine-induced hypothermia” value is given as “significantly potentiated”. Moreover, in experiment [3] (setting [5]), the “STEREOTYPY (intensity score), 20 min after apomorphine, mean ± s.e.m.” value is 2.7 ± 0.2; the “STEREOTYPY (intensity score), 50 min after apomorphine, mean ± s.e.m.” value stood at 1.0 ± 0.4; the “CLIMBING (No. of mice), 20 minutes after apomorphine” value was 6 No. of mice; the “CLIMBING (No. of mice), 50 minutes after apomorphine” value was 2 No. of mice. In experiment [3] (setting [5]), the “Rectal Temperature, 30 min after apomorphine, mean ± s.e.m.” value worked out at 34.4 ± 0.4 °C; the “Rectal Temperature, 60 min after apomorphine, mean ± s.e.m.” value was 35.0 ± 0.5 °C; the “Rectal Temperature, 30 min after apomorphine, mean change from control” value was −0.7 °C; the “Rectal Temperature, 60 min after apomorphine, mean change from control” value is −1.7 °C. In experiment [3] (setting [5]), the “STEREOTYPY (intensity score), 20 min after apomorphine, mean change from control” value is given as “+0.5” and the “STEREOTYPY (intensity score), 50 min after apomorphine, mean change from control” value is on record as 0.0. Further, in experiment [3] (16 mg/kg i.p., 30 min after test substance), the “Rectal Temperature, before apomorphine, mean ± s.e.m.” value was determined as 37.2 ± 0.2 °C.
